Values of other authors, collected in EP1133548B2, “DETERGENT COMPOSITIONS IN TABLET FORM” (UNILEVER PLC, priority 1998, dated 2000).

conditions: 20°C; grams of solid to form a saturated solution in 100 grams of water

Which “Water Solubility (g/100g)” value does the source give for `O=BO[O-].[Na+]` [Sodium perborate anhydrous] here?
Its value is 3.7 g/100g.

For `O=P(O)(O)OP(=O)(O)OP(=O)(O)O` [Sodium tripolyphosphate anhydrous], which “Water Solubility (g/100g)” value is on record?
Its value is 15 g/100g.

Which “Water Solubility (g/100g)” value does the source give for `NC(N)=O` [Urea] here?
Its value is >100 g/100g.
